According to article PMC7530896 (Journal of the American Chemical Society, 2020):

Key:
[1] = molecular target: T1, purified recombinant human UCHL1 (Homo sapiens, UniProt P09936); assay: Probe labeling of purified recombinant UCHL1; type: binding; settings: small-molecule probes: nondenaturing SDS-PAGE (no boiling, no β-mercaptoethanol)
T1 sequence (P09936 1-223): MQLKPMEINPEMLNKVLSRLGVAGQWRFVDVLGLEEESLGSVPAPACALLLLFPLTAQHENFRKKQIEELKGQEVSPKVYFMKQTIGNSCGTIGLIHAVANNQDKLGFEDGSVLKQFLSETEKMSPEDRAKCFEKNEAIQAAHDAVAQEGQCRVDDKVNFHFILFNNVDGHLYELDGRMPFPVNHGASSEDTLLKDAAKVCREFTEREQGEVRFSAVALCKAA

PARK7 = assay: Morpholino injections in zebrafish embryos, heart phenotype; type: in vivo, zebrafish (Danio rerio); settings: 2 dpf zebrafish embryos
UCHL1 = assay: Morpholino injections in zebrafish embryos, tail phenotype; type: in vivo, zebrafish (Danio rerio); settings: 2 dpf zebrafish embryos, 2 ng morpholino

| Substance | Tail phenotype % curly tail (UCHL1) | other results |
| --- | --- | --- |
| rhodamine-ubiquitin-propargylamide [Rh-Ub-PA] | – | labeling of purified recombinant human UCHL1 [1]: nearly all UCHL1 is labeled |
| PARK7MO1: morpholino targeting PARK7 exon 2, 5′-TATGTAAAGTCAGACCTGTTTGTG-3′ (all phosphorodiamidate morpholino (PMO)) | – | abnormal enlarged heart phenotype (PARK7): ~18% |
| UCHL1MO1: morpholino targeting UCHL1, 5′-TATTTCCATCGGTTTCCACTCCATG-3′ (all phosphorodiamidate morpholino (PMO)) | 53% | – |
| UCHL1MO2: morpholino targeting UCHL1 exon 4, 5′-GTTCCTTAAACATATCCACTTACCA-3′ (all phosphorodiamidate morpholino (PMO)) | 79% | – |
